{"source": "patent US20230085307A1", "about": "“PYRIDAZINONE COMPOUND AND HERBICIDE” (NISSAN CHEMICAL CORPORATION, priority 2019, published 2023)", "key": {"[1]": {"tested_on": "southern crabgrass", "assay": "Test Example 4: herbicidal effect by soil treatment (Table 19, symbol F)", "assay_type": "in vivo, southern crabgrass (Digitaria ciliaris)", "procedure,_shortened": "(§1)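 Herbicidal effect was rated 3 weeks after treatment, using the scoring criteria of an earlier test. The compound, formulated as an emulsion and diluted in water to a set herbicide amount, had been sprayed uniformly on soil over freshly sown seeds. Growth took place in a greenhouse at 25° C. to 30° C.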"}, "[2]": {"tested_on": "lambsquarters", "assay": "Test Example 5: herbicidal effect by foliage application, plastic box (Table 20, symbol O)", "assay_type": "in vivo, lambsquarters (Chenopodium album)", "details": "foliage application, 320 g/ha", "procedure,_shortened": "(§2)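 Foliar spray test: emulsion formulation diluted in water to a set application rate, sprayed onto 14-day-old plants raised in diluvial soil at 25° C to 30° C under glass. Both herbicidal effect and crop effect rated visually three weeks later.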"}, "[3]": {"tested_on": "lambsquarters", "assay": "Test Example 4: herbicidal effect by soil treatment (Table 19, symbol O)", "assay_type": "in vivo, lambsquarters (Chenopodium album)", "procedure,_shortened": "as §1"}, "[4]": {"tested_on": "Italian ryegrass", "assay": "Test Example 4: herbicidal effect by soil treatment (Table 19, symbol K)", "assay_type": "in vivo, Italian ryegrass (Lolium multiflorum)", "procedure,_shortened": "as §1"}, "[5]": {"tested_on": "Japanese bulrush", "assay": "Test Example 2: herbicidal activity, application during weed generation under submerged conditions (Table 17, symbol B)", "assay_type": "in vivo, Japanese bulrush (Schoenoplectus juncoides)", "details": "AAH 320 g/ha; application during weed generation, submerged conditions", "procedure,_shortened": "(§3)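 Steps: fill Wagner pots with alluvial soil; add water to give 4 cm depth; sow the species mixed; grow under glass at 25–30° C.; at 1–2 leaves apply water-diluted emulsion formulation to the water surface at a fixed herbicide amount; score after 3 weeks.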"}, "[6]": {"tested_on": "persian speedwell", "assay": "Test Example 5: herbicidal effect by foliage application, plastic box (Table 20, symbol R)", "assay_type": "in vivo, Persian speedwell (Veronica persica)", "details": "foliage application, 320 g/ha", "procedure,_shortened": "as §2"}, "[7]": {"tested_on": "Italian ryegrass", "assay": "Test Example 5: herbicidal effect by foliage application, plastic box (Table 20, symbol K)", "assay_type": "in vivo, Italian ryegrass (Lolium multiflorum)", "details": "foliage application, 320 g/ha", "procedure,_shortened": "as §2"}, "[8]": {"tested_on": "late watergrass", "assay": "Test Example 1: herbicidal activity, application before weed generation under submerged conditions (Table 16, symbol A)", "assay_type": "in vivo, late watergrass (Echinochloa oryzicola)", "details": "320 g/ha applied herbicide", "procedure,_shortened": "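Emulsion formulation, water-diluted to set dose, was put onto the flooded surface (4 cm depth, alluvial soil) the same day weeds were sown and 2.5-leaf rice transplanted. After 3 weeks at 25-30 °C under glass, each species was rated 0 (≤5% kill) to 5 (≥90% kill).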"}, "[9]": {"tested_on": "blackgrass", "assay": "Test Example 4: herbicidal effect by soil treatment (Table 19, symbol J)", "assay_type": "in vivo, blackgrass (Alopecurus myosuroides)", "procedure,_shortened": "as §1"}, "[10]": {"tested_on": "windgrass", "assay": "Test Example 5: herbicidal effect by foliage application, plastic box (Table 20, symbol L)", "assay_type": "in vivo, windgrass (Apera spica-venti)", "details": "foliage application, 320 g/ha", "procedure,_shortened": "as §2"}, "[11]": {"tested_on": "Chinese sprangletop", "assay": "Test Example 3: herbicidal effect by foliage application, Wagner pot (Table 18, symbol D)", "assay_type": "in vivo, chinese sprangletop (Leptochloa chinensis)", "details": "320 g/ha", "procedure,_shortened": "(§4)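 Plants were sown in alluvial soil held under 0.1–0.5 cm standing water and grown 14 days in a greenhouse at 25–30 °C. An emulsifiable formulation, water-diluted to the set dose, was then sprayed onto the foliage, and effects were scored three weeks later using previously defined criteria.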"}, "[12]": {"tested_on": "windgrass", "assay": "Test Example 4: herbicidal effect by soil treatment (Table 19, symbol L)", "assay_type": "in vivo, windgrass (Apera spica-venti)", "procedure,_shortened": "as §1"}, "[13]": {"tested_on": "velvetleaf", "assay": "Test Example 4: herbicidal effect by soil treatment (Table 19, symbol M)", "assay_type": "in vivo, velvetleaf (Abutilon theophrasti)", "procedure,_shortened": "as §1"}, "[14]": {"tested_on": "barnyard grass", "assay": "Test Example 3: herbicidal effect by foliage application, Wagner pot (Table 18, symbol H)", "assay_type": "in vivo, barnyard grass (Echinochloa crus-galli)", "details": "320 g/ha", "procedure,_shortened": "as §4"}, "[15]": {"tested_on": "persian speedwell", "assay": "Test Example 4: herbicidal effect by soil treatment (Table 19, symbol R)", "assay_type": "in vivo, Persian speedwell (Veronica persica)", "procedure,_shortened": "as §1"}, "[16]": {"tested_on": "southern crabgrass", "assay": "Test Example 5: herbicidal effect by foliage application, plastic box (Table 20, symbol F)", "assay_type": "in vivo, southern crabgrass (Digitaria ciliaris)", "details": "foliage application, 320 g/ha", "procedure,_shortened": "as §2"}, "[17]": {"tested_on": "late watergrass", "assay": "Test Example 2: herbicidal activity, application during weed generation under submerged conditions (Table 17, symbol A)", "assay_type": "in vivo, late watergrass (Echinochloa oryzicola)", "details": "AAH 320 g/ha; application during weed generation, submerged conditions", "procedure,_shortened": "as §3"}, "[18]": {"details": "evaluated three weeks after application"}}}
{"smiles": "CCCC(=O)Oc1c(C)nn(C)c(=O)c1-c1c(-c2ccc(OC)c(F)c2)sc2ccc(F)cc12", "note": "[2-087]", "values": [{"measurement": "herbicidal effect rating, F: southern crabgrass", "setting": "[1]; 320 g/ha", "value": "0 (Herbicidal rate of 5% or less (almost no effect))"}, {"measurement": "herbicidal effect on O: lambsquarters", "setting": "[2]; [18]", "value": "4 (Herbicidal rate of 70% or more and less than 90%)"}, {"measurement": "herbicidal effect rating, O: lambsquarters", "setting": "[3]; 320 g/ha", "value": "5 (Herbicidal rate of 90% or more (almost completely withered))"}, {"measurement": "herbicidal effect rating, K: Italian ryegrass", "setting": "[4]; 320 g/ha", "value": "0 (Herbicidal rate of 5% or less (almost no effect))"}, {"measurement": "herbicidal effect rating, B: Japanese bulrush", "setting": "[5]", "value": "2 (Herbicidal rate of 20% or more and less than 40%)"}, {"measurement": "herbicidal effect on R: persian speedwell", "setting": "[6]; [18]", "value": "5 (Herbicidal rate of 90% or more (almost completely withered))"}, {"measurement": "herbicidal effect on K: Italian ryegrass", "setting": "[7]; [18]", "value": "1 (Herbicidal rate of 5% or more and less than 20%)"}, {"measurement": "Herbicidal effect on A: late watergrass (grade 0-5)", "setting": "[8]", "value": "5 (Herbicidal rate of 90% or more (almost completely withered))"}, {"measurement": "herbicidal effect rating, J: blackgrass", "setting": "[9]; 320 g/ha", "value": "0 (Herbicidal rate of 5% or less (almost no effect))"}, {"measurement": "herbicidal effect on L: windgrass", "setting": "[10]; [18]", "value": "0 (Herbicidal rate of 5% or less (almost no effect))"}, {"measurement": "herbicidal effect on D (Chinese sprangletop), rating 0-5", "setting": "[11]", "value": "2 (Herbicidal rate of 20% or more and less than 40%)"}, {"measurement": "herbicidal effect rating, L: windgrass", "setting": "[12]; 320 g/ha", "value": "0 (Herbicidal rate of 5% or less (almost no effect))"}, {"measurement": "herbicidal effect rating, M: velvetleaf", "setting": "[13]; 320 g/ha", "value": "3 (Herbicidal rate of 40% or more and less than 70%)"}, {"measurement": "herbicidal effect on H (barnyard grass), rating 0-5", "setting": "[14]", "value": "3 (Herbicidal rate of 40% or more and less than 70%)"}, {"measurement": "herbicidal effect rating, R: persian speedwell", "setting": "[15]; 320 g/ha", "value": "5 (Herbicidal rate of 90% or more (almost completely withered))"}, {"measurement": "herbicidal effect on F: southern crabgrass", "setting": "[16]; [18]", "value": "0 (Herbicidal rate of 5% or less (almost no effect))"}, {"measurement": "herbicidal effect rating, A: late watergrass", "setting": "[17]", "value": "0 (Herbicidal rate of 5% or less (almost no effect))"}]}
{"smiles": "C#CCSCc1ccc(-c2sc3ccccc3c2-c2c(O)c(C)nn(C)c2=O)cc1", "note": "[1-247]", "values": [{"measurement": "F: southern crabgrass, herbicidal effect rating", "setting": "[1]; AAH 320 g/ha", "value": "0 (Herbicidal rate of 5% or less (almost no effect))"}, {"measurement": "effect on lambsquarters (O)", "setting": "[2]; 3 weeks after application", "value": "5 (Herbicidal rate of 90% or more (almost completely withered))"}, {"measurement": "O: lambsquarters, herbicidal effect rating", "setting": "[3]; AAH 320 g/ha", "value": "3 (Herbicidal rate of 40% or more and less than 70%)"}, {"measurement": "K: Italian ryegrass, herbicidal effect rating", "setting": "[4]; AAH 320 g/ha", "value": "3 (Herbicidal rate of 40% or more and less than 70%)"}, {"measurement": "herbicidal effect rating, B: Japanese bulrush", "setting": "[5]", "value": "0 (Herbicidal rate of 5% or less (almost no effect))"}, {"measurement": "effect on persian speedwell (R)", "setting": "[6]; 3 weeks after application", "value": "5 (Herbicidal rate of 90% or more (almost completely withered))"}, {"measurement": "effect on Italian ryegrass (K)", "setting": "[7]; 3 weeks after application", "value": "4 (Herbicidal rate of 70% or more and less than 90%)"}, {"measurement": "Herbicidal effect on A: late watergrass (grade 0-5)", "setting": "[8]", "value": "2 (Herbicidal rate of 20% or more and less than 40%)"}, {"measurement": "J: blackgrass, herbicidal effect rating", "setting": "[9]; AAH 320 g/ha", "value": "0 (Herbicidal rate of 5% or less (almost no effect))"}, {"measurement": "effect on windgrass (L)", "setting": "[10]; 3 weeks after application", "value": "0 (Herbicidal rate of 5% or less (almost no effect))"}, {"measurement": "herbicidal effect on D (Chinese sprangletop), rating 0-5", "setting": "[11]", "value": "1 (Herbicidal rate of 5% or more and less than 20%)"}, {"measurement": "L: windgrass, herbicidal effect rating", "setting": "[12]; AAH 320 g/ha", "value": "0 (Herbicidal rate of 5% or less (almost no effect))"}, {"measurement": "M: velvetleaf, herbicidal effect rating", "setting": "[13]; AAH 320 g/ha", "value": "0 (Herbicidal rate of 5% or less (almost no effect))"}, {"measurement": "herbicidal effect on H (barnyard grass), rating 0-5", "setting": "[14]", "value": "5 (Herbicidal rate of 90% or more (almost completely withered))"}, {"measurement": "R: persian speedwell, herbicidal effect rating", "setting": "[15]; AAH 320 g/ha", "value": "4 (Herbicidal rate of 70% or more and less than 90%)"}, {"measurement": "effect on southern crabgrass (F)", "setting": "[16]; 3 weeks after application", "value": "2 (Herbicidal rate of 20% or more and less than 40%)"}, {"measurement": "herbicidal effect rating, A: late watergrass", "setting": "[17]", "value": "3 (Herbicidal rate of 40% or more and less than 70%)"}]}
